Key:
[1] = tested on: T1, C. trachomatis L2/434/Bu expressing GFP (CTL2-GFP); assay: microbe, parasite or virus in culture; parameters: C. trachomatis total inclusion area by high-content imaging, normalised to DMSO; settings: Chlamydia trachomatis, HeLa, 28.5 h; total inclusion area; read-out: % of control remaining
T1 construct: L2/434/Bu GFP intracellular growth in HeLa cells
Source text: We screened a library of 36,785 small molecules displaying drug-like properties and covering a wide chemical space (Fig 1A and S2A Data). In this process, we also complemented the assay described above with an imaging-based readout (Fig 1B). After measurements of bulk GFP and resorufin fluorescence, cells were fixed, stained with the DNA dye Hoechst, and imaged at a high-content imaging platform to detect chlamydial inclusions (GFP) and host cell nuclei (Hoechst). The total area and number of inclusions in individual wells and the number of nuclei then served as additional proxies for chlamydial growth and host cell viability. […] MICs were calculated as described above.

in vitro = assay: in vitro; parameters: Viability of infected HeLa host cells, resazurin conversion, bulk resorufin fluorescence relative to DMSO; settings: human, hela cells; bulk resorufin, mean of 2
[2] = tested on: T2, CTL2-GFP (C. trachomatis L2/434/Bu, GFP-expressing); assay: microbe, parasite or virus in culture; parameters: Intracellular C. trachomatis growth in HeLa cells, bulk GFP fluorescence relative to DMSO; settings: Chlamydia trachomatis, HeLa, 28.5 h; bulk GFP, mean of 2; read-out: % of control remaining
T2 construct: L2/434/Bu, GFP-expressing
Experimental: MICs were calculated as described above.

| SMILES | activity at 1 µM [1] [%] | activity at 5 µM [1] [%] | activity at 10 µM [1] [%] | viability at 28.5 h, 1 µM (in vitro) [%] | viability at 28.5 h, 5 µM (in vitro) [%] | viability at 28.5 h, 10 µM (in vitro) [%] | activity at 1 µM [2] [%] | activity at 5 µM [2] [%] | activity at 10 µM [2] [%] |
| --- | --- | --- | --- | --- | --- | --- | --- | --- | --- |
| Oc1ccccc1Nc1nc(NC2CCCC2)c2ccccc2n1 [CBK268402C] | 43.4 | 23.2 | 4.48 | 90.7 | 94.1 | 104 | 120 | 45.9 | 9.92 |
| CC(=O)NC[C@H]1CN(c2ccc3c(c2)CCN(C(C)=O)CC3)C(=O)O1 [CBK018491] | 57.6 | 10.2 | 1.08 | 91.8 | 95.1 | 112 | 112 | 8.52 | 0.0674 |
| O=[N+]([O-])c1cc([N+](=O)[O-])c2cccnc2c1NNc1nncc2ccccc12 [CBK110409] | 108 | 63.9 | 31 | 93 | 89.1 | 86.6 | 107 | 69 | 22.1 |
| O=C1Oc2nc3ccccc3cc2CN1C1CC1 [CBK282870] | 0.264 | 0.496 | 0.404 | 112 | 112 | 98.4 | 0.777 | 1.12 | 3.61 |
| O=C(Nc1ccc(F)cc1)c1[nH]c2ccccc2c1NS(=O)(=O)c1cc(Cl)sc1Cl [CBK050094] | 126 | 99.9 | 62.7 | 90 | 96.8 | 86.9 | 151 | 124 | 118 |
| CCc1cc(-c2n[nH]cc2-c2nc(C)cs2)c(O)cc1OC [CBK287934] | 87.9 | 31.5 | 6.53 | 101 | 96.8 | 94.8 | 133 | 62.2 | 7.47 |
| CCNC(=O)N1CC2(CCN(Cc3nc4ccccc4[nH]3)CC2)c2ccccc21 [CBK126693] | 74.5 | 89.8 | 65 | 100 | 94.1 | 96.7 | 115 | 120 | 109 |
| Cc1ccc2[nH]c3c(c2c1)CCOC31CCN(Cc2ccccc2-c2ccccc2)CC1 [CBK039915] | 27.9 | 15.9 | 7.2 | 99.1 | 93.6 | 100 | 69.3 | 33.8 | 27.9 |
| O=C(O)c1cn(C2CC2)c2cc(N3CCN(C(=O)C4CCCO4)CC3)c(F)cc2c1=O (stereo not drawn) [CBK297139] | 46.9 | 12.4 | 6.62 | 97 | 94.9 | 114 | 96.1 | 15.3 | 0.67 |
| COC(=O)CCc1ccc(-c2cnc(N)c(-c3ccc(O)cc3)n2)cc1 [CBK122809] | 92.1 | 83.5 | 80.2 | 114 | 118 | 113 | 122 | 108 | 93.5 |
| O=C(OCCC1SC(NC2CC3C=CC2C3)=NC1=O)c1ccc(Cl)c([N+](=O)[O-])c1 (stereo not drawn) [CBK200060T] | 132 | 108 | 68.7 | 92.3 | 96.8 | 88.4 | 140 | 129 | 103 |
| Cc1noc(NS(=O)(=O)c2ccc(NC(=O)CCN3C(=O)c4ccccc4C3=O)cc2)c1C [CBK264091] | 99.8 | 67.5 | 32.7 | 92.8 | 92.8 | 91.3 | 106 | 40.3 | 28.9 |
| Cc1noc(NS(=O)(=O)c2ccc(NC(=O)/C=C/c3ccc(C(C)C)cc3)cc2)c1C [CBK265430] | 69.9 | 23.1 | 22.2 | 108 | 102 | 106 | 66.5 | 26.3 | 11.6 |
| O=[N+]([O-])c1cc2c(cc1C(Nc1ccccn1)c1cc(Cl)c3cccnc3c1O)OCO2 (stereo not drawn) [CBK267795] | 94.3 | 40.8 | 25.9 | 95.1 | 98.7 | 93.2 | 109 | 82.9 | 79.7 |
| CC1=C(C)C(=NNC(N)=S)C(C)=C(C)C1=NNC(N)=S [CBK261262] | 96.7 | 31.5 | 17.1 | 90.9 | 90.8 | 90.6 | 116 | 39.1 | 12.7 |
| CC(C)(C)c1cc(C(=O)Nc2ccncc2)n(Cc2ccc(Cl)cc2Cl)n1 [CBK107284] | 117 | 57.8 | 39.7 | 94.9 | 94 | 97.3 | 116 | 74.6 | 24.2 |
| CC(=O)NC[C@H]1CN(c2ccc3c(c2)CCN(C(=O)Cc2ccccc2)CC3)C(=O)O1 [CBK018499] | 38 | 0.495 | 0.215 | 92.9 | 95.9 | 92.1 | 37.5 | 2.41 | 5.46 |
| CN(C)CCNc1nc(-c2ccc(Cl)cc2)nc2ccccc12 [CBK263942] | 64.3 | 38.6 | 5.67 | 94.8 | 97 | 94.4 | 111 | 85.1 | 47.9 |
| O=C(NCCCn1ccnc1)c1cc(-c2ccc(Br)cc2)nc2ccccc12 [CBK262645] | 126 | 95.8 | 45.4 | 103 | 107 | 94.9 | 138 | 87.8 | 31.9 |
| O=C(O)c1cn(C2CC2)c2cc(N3CCNCC3)c(F)cc2c1=O [CBK011645] | 11.1 | 0.824 | 0.167 | – | – | – | 12.8 | 1.31 | 0 |
